Laboratory results taken from patent US8802597B2, “Herbicidal pyrimidines” (E I du Pont de Nemours and Company, priority 2003, dated 2014).

What was measured:
Assay in all cases: Test D pre/postemergence
Type in all cases: in vivo
Conditions in all cases: scale 0 to 100 (100 = complete control)
kochia (Kochia scoparia) = test system: kochia (Kochia scoparia)
Text: (§1) Seeds of plant species selected from catchweed bedstraw (galium; Galium aparine), common chickweed (Stellaria media), kochia (Kochia scoparia), lambsquarters (Chenopodium album), pigweed (Amaranthus retroflexus), Russian thistle (Salsola kali), wild buckwheat (Polygonum convolvulus), wild mustard (Sinapis arvensis), winter barley (Hordeum vulgare), and wheat (Triticum aestivum) were planted and treated preemergence with test chemicals formulated in a non-phytotoxic solvent mixture which included a surfactant.
(§2) At the same time, plants selected from these crop and weed species were treated with postemergence applications of some of the test chemicals formulated in the same manner. Plants ranged in height from 2 to 18 cm (1- to 4-leaf stage) for postemergence treatments. Treated plants and controls were maintained in a controlled growth environment for 15 to 25 days after which time all species were compared to controls and visually evaluated. Plant response ratings, summarized in Table D, are based on a scale of 0 to 100 where 0 is no effect and 100 is complete control. A dash (-) response means no test result.

[1] = test system: wheat (Triticum aestivum)
Text: as §1, §2

[2] = test system: wild buckwheat (Polygonum convolvulus)
Text: as §1, §2

[3] = test system: catchweed bedstraw (galium; Galium aparine)
Text: as §1, §2

[4] = test system: wild mustard (Sinapis arvensis)
Text: as §1, §2

[5] = test system: common chickweed (Stellaria media)
Text: as §1, §2

[6] = test system: Russian thistle (Salsola kali)
Text: as §1, §2

[7] = test system: lambsquarters (Chenopodium album)
Text: as §1, §2

[8] = test system: pigweed (Amaranthus retroflexus)
Text: as §1, §2

COC(=O)c1nc(C2CC2)nc(N)c1Br [Compound 2, methyl 6-amino-5-bromo-2-cyclopropyl-4-pyrimidinecarboxylate]
Plant response rating, Kochia (kochia (Kochia scoparia); Postemergence, 16 g ai/ha): 75 | Plant response rating, Kochia (kochia (Kochia scoparia); Postemergence, 31 g ai/ha): 100 | Plant response rating, Kochia (kochia (Kochia scoparia); Postemergence, 62 g ai/ha): 100 | Plant response rating, Kochia (kochia (Kochia scoparia); Postemergence, 125 g ai/ha): 100 | Plant response rating, Kochia (kochia (Kochia scoparia); Preemergence, 16 g ai/ha): 55 | Plant response rating, Kochia (kochia (Kochia scoparia); Preemergence, 31 g ai/ha): 70 | Plant response rating, Kochia (kochia (Kochia scoparia); Preemergence, 62 g ai/ha): 100 | Plant response rating, Kochia (kochia (Kochia scoparia); Preemergence, 125 g ai/ha): 100 | Plant response rating, Wheat ([1]; Postemergence, 16 g ai/ha): 70 | Plant response rating, Wheat ([1]; Postemergence, 31 g ai/ha): 70 | Plant response rating, Wheat ([1]; Postemergence, 62 g ai/ha): 100 | Plant response rating, Wheat ([1]; Postemergence, 125 g ai/ha): 100 | Plant response rating, Wheat ([1]; Preemergence, 16 g ai/ha): 45 | Plant response rating, Wheat ([1]; Preemergence, 31 g ai/ha): 60 | Plant response rating, Wheat ([1]; Preemergence, 62 g ai/ha): 70 | Plant response rating, Wheat ([1]; Preemergence, 125 g ai/ha): 70 | Plant response rating, Buckwheat, Wild ([2]; Postemergence, 16 g ai/ha): 45 | Plant response rating, Buckwheat, Wild ([2]; Postemergence, 31 g ai/ha): 65 | Plant response rating, Buckwheat, Wild ([2]; Postemergence, 62 g ai/ha): 90 | Plant response rating, Buckwheat, Wild ([2]; Postemergence, 125 g ai/ha): 95 | Plant response rating, Buckwheat, Wild ([2]; Preemergence, 16 g ai/ha): 45 | Plant response rating, Buckwheat, Wild ([2]; Preemergence, 31 g ai/ha): 65 | Plant response rating, Buckwheat, Wild ([2]; Preemergence, 62 g ai/ha): 80 | Plant response rating, Buckwheat, Wild ([2]; Preemergence, 125 g ai/ha): 85 | Plant response rating, Galium ([3]; Postemergence, 16 g ai/ha): 75 | Plant response rating, Galium ([3]; Postemergence, 31 g ai/ha): 100 | Plant response rating, Galium ([3]; Postemergence, 62 g ai/ha): 100 | Plant response rating, Galium ([3]; Postemergence, 125 g ai/ha): 100 | Plant response rating, Galium ([3]; Preemergence, 16 g ai/ha): 80 | Plant response rating, Galium ([3]; Preemergence, 31 g ai/ha): 90 | Plant response rating, Galium ([3]; Preemergence, 62 g ai/ha): 98 | Plant response rating, Galium ([3]; Preemergence, 125 g ai/ha): 100 | Plant response rating, Mustard, Wild ([4]; Postemergence, 16 g ai/ha): 65 | Plant response rating, Mustard, Wild ([4]; Postemergence, 31 g ai/ha): 65 | Plant response rating, Mustard, Wild ([4]; Postemergence, 62 g ai/ha): 70 | Plant response rating, Mustard, Wild ([4]; Postemergence, 125 g ai/ha): 80 | Plant response rating, Mustard, Wild ([4]; Preemergence, 16 g ai/ha): 50 | Plant response rating, Mustard, Wild ([4]; Preemergence, 31 g ai/ha): 70 | Plant response rating, Mustard, Wild ([4]; Preemergence, 62 g ai/ha): 70 | Plant response rating, Mustard, Wild ([4]; Preemergence, 125 g ai/ha): 85 | Plant response rating, Chickweed ([5]; Postemergence, 16 g ai/ha): 60 | Plant response rating, Chickweed ([5]; Postemergence, 31 g ai/ha): 60 | Plant response rating, Chickweed ([5]; Postemergence, 62 g ai/ha): 85 | Plant response rating, Chickweed ([5]; Postemergence, 125 g ai/ha): 85 | Plant response rating, Chickweed ([5]; Preemergence, 16 g ai/ha): 60 | Plant response rating, Chickweed ([5]; Preemergence, 31 g ai/ha): 60 | Plant response rating, Chickweed ([5]; Preemergence, 62 g ai/ha): 75 | Plant response rating, Chickweed ([5]; Preemergence, 125 g ai/ha): 90 | Plant response rating, Russian Thistle ([6]; Postemergence, 16 g ai/ha): 65 | Plant response rating, Russian Thistle ([6]; Postemergence, 31 g ai/ha): 85 | Plant response rating, Russian Thistle ([6]; Postemergence, 62 g ai/ha): 95 | Plant response rating, Russian Thistle ([6]; Postemergence, 125 g ai/ha): 100 | Plant response rating, Russian Thistle ([6]; Preemergence, 16 g ai/ha): 85 | Plant response rating, Russian Thistle ([6]; Preemergence, 31 g ai/ha): 100 | Plant response rating, Russian Thistle ([6]; Preemergence, 62 g ai/ha): 100 | Plant response rating, Russian Thistle ([6]; Preemergence, 125 g ai/ha): 100 | Plant response rating, Lambsquarters ([7]; Postemergence, 16 g ai/ha): 60 | Plant response rating, Lambsquarters ([7]; Postemergence, 31 g ai/ha): 100 | Plant response rating, Lambsquarters ([7]; Postemergence, 62 g ai/ha): 100 | Plant response rating, Lambsquarters ([7]; Postemergence, 125 g ai/ha): 100 | Plant response rating, Lambsquarters ([7]; Preemergence, 31 g ai/ha): 85 | Plant response rating, Lambsquarters ([7]; Preemergence, 62 g ai/ha): 95 | Plant response rating, Lambsquarters ([7]; Preemergence, 125 g ai/ha): 100 | Plant response rating, Pigweed ([8]; Postemergence, 16 g ai/ha): 65 | Plant response rating, Pigweed ([8]; Postemergence, 31 g ai/ha): 85 | Plant response rating, Pigweed ([8]; Postemergence, 62 g ai/ha): 100 | Plant response rating, Pigweed ([8]; Postemergence, 125 g ai/ha): 100 | Plant response rating, Pigweed ([8]; Preemergence, 16 g ai/ha): 65 | Plant response rating, Pigweed ([8]; Preemergence, 31 g ai/ha): 70 | Plant response rating, Pigweed ([8]; Preemergence, 62 g ai/ha): 85 | Plant response rating, Pigweed ([8]; Preemergence, 125 g ai/ha): 100
